15 compounds from ChEMBL document CHEMBL3243983, “2-(Alkoxyaryl)-2-imidazoline monoamine oxidase inhibitors with antidepressant activity” (J Med Chem, 1978) can be followed below.

SMILES strings stand for the structures. Active and inactive are the calls of the source. No cut-off for these calls is given here. Bounds are passed on as bounds.

The nature of assay [1]: Inhibition of MAO in mouse brain using serotonin as substrate. The assay is classed as tissue-based.
In assay [2] the test system is Mus musculus. The assay is described as follows: Antidepressant activity in mouse assessed as antagonism of tetrabenazine-induced symptoms at 10 mg/kg, ip administered 30 mins before 35 mg/kg, ip tetrabenazine challenge measured after 30 mins by arousal test. The assay is classed as functional.
For assay [3], the species on record is Rattus norvegicus. The assay is described as follows: Inhibition of MAO in rat brain using serotonin as substrate preincubated for 15 mins. The assay is classed as tissue-based.
The species entered for assay [4] is Rattus norvegicus. The assay is described as follows: Irreversible inhibition of MAO in rat brain using serotonin as substrate preincubated for 15 mins measured after dialysis. The class given is tissue-based.
Assay [5] is filed under the species Rattus norvegicus. As to the kind of experiment: Irreversible inhibition of MAO in rat brain using serotonin as substrate measured after dilution. The class given is tissue-based.

For `C#CCN(C)Cc1ccccc1` [PARGYLINE], in assay [1], the IC50 worked out at 1200 nM. In addition, in assay [2], the “inhibition (INH)” value is listed as 60%.

As to `CCOc1ccc(C2=NCCN2)c2ccccc12`, the concentration for half-maximal inhibition (IC50) in assay [1] turned out to be 54 nM. In assay [2], the “inhibition (INH)” value is recorded as 50%.

On to `CCCCOc1ccc(C2=NCCN2)c2ccccc12`, for which the values for the inhibition in assay [3] and in assay [4] were 96% and 77%, respectively. Also, the IC50 in assay [1] is 58 nM. Further, the “inhibition (INH)” value in assay [2] is listed as 60%. Moreover, in assay [5], the inhibition result is “Active”.

As to `CCCCOc1c(CCC)cc(C2=NCCN2)c2ccccc12`, half-maximal inhibition in assay [1] (IC50) was put at 4900 nM. Moreover, in assay [2], the “inhibition (INH)” value was less than 30%.

In assay [1], `CCCCOc1ccc2c(C3=NCCN3)cccc2c1` gave an IC50 of 32 nM. For the same compound, in assay [2], the “inhibition (INH)” value is 60%.

With `c1ccc2c(c1)cc(C1=NCCN1)c1ccccc12`, the midpoint of inhibition in assay [1], the IC50, lay at 35000 nM. Also, the “inhibition (INH)” value in assay [2] is reported as less than 30%.

In assay [1], `CCCCOc1ccc(C2=NC(C)(C)CN2)c2ccccc12.Cl` had an IC50 of 6000 nM. In assay [2], the “inhibition (INH)” value was less than 30%.

`CCCCOc1ccc(C2=NC(C)CN2)c2ccccc12` (stereo unspecified) came in with an IC50 in assay [1] of 60 nM. Besides, the “inhibition (INH)” value in assay [2] was less than 60%.

`CCCOc1ccc(C2=NCCN2)c2ccccc12` gave an IC50 in assay [1] of 91 nM. The “inhibition (INH)” value in assay [2] was found to be 60%.

As for `Oc1ccc(C2=NCCN2)c2ccccc12`, it took 12000 nM to reach half-maximal inhibition in assay [1] (IC50). In addition, in assay [2], the “inhibition (INH)” value is on record as less than 30%.

In assay [1], `CCCCOc1ccc(C2=NCCCN2)c2ccccc12` yielded an IC50 of 50 nM. Further, the “inhibition (INH)” value in assay [2] stood at 30%.

`CCCCCCOc1ccc2c(C3=NCCN3)cccc2c1` had an IC50 in assay [1] of 3400 nM. The “inhibition (INH)” value in assay [2] is less than 30%.

`CCCCCCOc1ccc(C2=NCCN2)c2ccccc12` came in with an IC50 in assay [1] of 350 nM. Also, the “inhibition (INH)” value in assay [2] turned out to be 40%.

As for `CCCCCOc1ccc(C2=NCCN2)c2ccccc12`, in assay [1], the IC50 was 91 nM. For the same compound, the “inhibition (INH)” value in assay [2] was found to be 50%.

Turning to `CCCCCCCOc1ccc(C2=NCCN2)c2ccccc12`, the inhibition in assay [3] turned out to be 91%; in assay [4], 93%. The IC50 in assay [1] is 400 nM. Further, in assay [2], the “inhibition (INH)” value is given as less than 30%. Also, the inhibition entry in assay [5] was “Active”.
